Experimental findings from ChEMBL document CHEMBL1201862, “PubChem BioAssay data set” (2004) are described below.

The target of experiment [1] is Neuropeptides B/W receptor type 1 (Homo sapiens, UniProt P48145). The experiment can be described thus: human NPBW1 receptor blockade, IC50 – cell-based, fluorescence, dose response, set 6, late-stage follow-up (AID 588583). The class given is functional.
Experiment [2] deals with Melanin-concentrating hormone receptor 1 (Homo sapiens, UniProt Q99705). The experiment can be described thus: Late-stage fluorescence-based counterscreen for antagonists of the G-protein coupled receptor 7 (GPR7): cell-based dose response assay to identify antagonists of the melanin-concentrating hormone receptor 1 (MCHR1) Set 6. The class given is functional. In general terms: Counterscreens check selectivity or assay interference.

In experiment [3] the target is Casein kinase II subunit alpha (Homo sapiens, UniProt P68400). The class given is functional.
Experiment [4] concerns the target Ribosomal protein S6 kinase alpha-3 (Homo sapiens, UniProt P51812). The class given is functional.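 Also: measured within a kinome-wide profiling panel.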
Experiment [5] has as its target Serine/threonine-protein kinase PLK3 (Homo sapiens, UniProt Q9H4B4). The class given is functional.
In experiment [6] the target is 5'-AMP-activated protein kinase catalytic subunit alpha-1 (Homo sapiens, UniProt Q13131). The format is functional.
In experiment [7] the target is Serine/threonine-protein kinase pim-1 (Homo sapiens, UniProt P11309). The format is functional.
Experiment [8] has as its target Ribosomal protein S6 kinase beta-1 (Homo sapiens, UniProt P23443). The format is functional.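 Also: measured as one member of a kinome-wide profiling panel.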
Experiment [9] addresses Cyclin-dependent kinase 1 (Homo sapiens, UniProt P06493). The class given is functional.
Experiment [10] concerns the target Fibroblast growth factor receptor 1 (Homo sapiens, UniProt P11362). The class given is functional.
Experiment [11] concerns the target Protein kinase C gamma type (Homo sapiens, UniProt P05129). The class given is functional.
Experiment [12] addresses RAC-gamma serine/threonine-protein kinase (Homo sapiens, UniProt Q9Y243). The class given is functional.
Experiment [13] concerns the target MAP/microtubule affinity-regulating kinase 3 (Homo sapiens, UniProt P27448). The class given is functional.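 Also: MARK3 affinity measured as one member of a kinome panel.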
Experiment [14] deals with Cyclin-dependent kinase 2 (Homo sapiens, UniProt P24941). The class given is functional.
The target of experiment [15] is cAMP-dependent protein kinase catalytic subunit alpha (Homo sapiens, UniProt P17612). The class given is functional.
Experiment [16] concerns the target Serine/threonine-protein kinase MRCK alpha (Homo sapiens, UniProt Q5VT25). The class given is functional.
Experiment [17] addresses Serine/threonine-protein kinase Chk2 (Homo sapiens, UniProt O96017). The format is functional.
Experiment [18] deals with Protein kinase C zeta type (Homo sapiens, UniProt Q05513). The format is functional.
The target in experiment [19] is Serine/threonine-protein kinase PAK 4 (Homo sapiens, UniProt O96013). The format is functional.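 Also: value obtained within a kinome profiling panel in which PAK4 was one of the panel members.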
Experiment [20] addresses MAP kinase-activated protein kinase 2 (Homo sapiens, UniProt P49137). The class given is functional.
Experiment [21] has as its target Protein kinase C delta type (Homo sapiens, UniProt Q05655). The class given is functional.
A further experiment has as its target Ephrin type-A receptor 2 (Homo sapiens, UniProt P29317). The class given is functional.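 Also: EPHA2 tested as one member of a kinome-wide kinase panel.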
Experiment [22] has as its target Serine/threonine-protein kinase Chk1 (Homo sapiens, UniProt O14757). The format is functional.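 Also: measured as one member of a kinome-wide kinase profiling panel.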
The target of experiment [23] is Serine/threonine-protein kinase PLK1 (Homo sapiens, UniProt P53350). The class given is functional.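 Also: PLK1 measured as one member of a kinome-wide profiling panel.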
Another experiment has as its target Aurora kinase A (Homo sapiens, UniProt O14965). The format is functional.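 Also: value from the Navigating the Kinome kinase panel profiling, panel entry STK6.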
Experiment [24] concerns the target Glycogen synthase kinase-3 beta (Homo sapiens, UniProt P49841). The class given is functional.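 Also: value comes from a broad kinome profiling panel, with GSK3B as the panel member.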
In experiment [25] the target is RAC-alpha serine/threonine-protein kinase (Homo sapiens, UniProt P31749). The class given is functional.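 Also: AKT1 affinity measured as one member of a kinome-wide kinase profiling panel.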
A short description of experiment [26]: THP-1 cell cytotoxicity, cytotoxicity control, set 5 (AID 588443). The class given is functional.
For experiment [27], the target named is Cell division cycle 7-related protein kinase (Homo sapiens, UniProt O00311). The format is functional.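 Also: value obtained from a kinome-wide kinase panel.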
Experiment [28] deals with Homeodomain-interacting protein kinase 2 (Homo sapiens, UniProt Q9H2X6). The format is functional.
For experiment [29], the target named is Interleukin-1 receptor-associated kinase 4 (Homo sapiens, UniProt Q9NWZ3). The class given is functional.
The target in experiment [30] is Mitogen-activated protein kinase kinase kinase kinase 4 (Homo sapiens, UniProt O95819). The format is functional.
In experiment [31] the target is Dual specificity protein kinase CLK4 (Homo sapiens, UniProt Q9HAZ1). The class given is functional.
The target of experiment [32] is 72 kDa type IV collagenase (Homo sapiens, UniProt P08253). The experiment can be described thus: Dose Response validation of uHTS RPN11 inhibitor hits using a MMP-2 Fluorescence assay. The format is functional.
Experiment [33] has as its target FAD-linked sulfhydryl oxidase ALR (Homo sapiens, UniProt P55789). The experiment can be described thus: ALR-catalysed DTT oxidation blockers – biochemical, H2O2 detection, luminescence, cherry-pick, dose response (AID 493248).
Experiment [34] addresses Multidrug resistance protein CDR2 (Candida albicans (strain SC5314 / ATCC MYA-2876) (Yeast), UniProt P78595). The experiment can be described thus: inhibition of Nile Red efflux via Candida CDR2 – S. cerevisiae AD1-8u, singleplex, Cherry Pick1 hits, dose response (AID 588604). The format is functional.
The target in experiment [35] is Intestinal-type alkaline phosphatase (Homo sapiens, UniProt P09923). The experiment can be described thus: activation of human intestinal alkaline phosphatase – biochemical, dose response (AID 488873). The format is functional.
Experiment [36] deals with 26S proteasome non-ATPase regulatory subunit 14 (Homo sapiens, UniProt O00487). The experiment can be described thus: inhibition of proteasome subunit RPN11 – biochemical, fluorescence polarization, uHTS hits, confirmation (AID 602368). The class given is functional. On the technique in general: Polarisation of emitted light reports the rotation of a fluorescent probe.

For experiment [37], the target named is T1, Histone-lysine N-methyltransferase NSD2 (Homo sapiens, UniProt O96028).
T1 sequence (O96028 whole entry): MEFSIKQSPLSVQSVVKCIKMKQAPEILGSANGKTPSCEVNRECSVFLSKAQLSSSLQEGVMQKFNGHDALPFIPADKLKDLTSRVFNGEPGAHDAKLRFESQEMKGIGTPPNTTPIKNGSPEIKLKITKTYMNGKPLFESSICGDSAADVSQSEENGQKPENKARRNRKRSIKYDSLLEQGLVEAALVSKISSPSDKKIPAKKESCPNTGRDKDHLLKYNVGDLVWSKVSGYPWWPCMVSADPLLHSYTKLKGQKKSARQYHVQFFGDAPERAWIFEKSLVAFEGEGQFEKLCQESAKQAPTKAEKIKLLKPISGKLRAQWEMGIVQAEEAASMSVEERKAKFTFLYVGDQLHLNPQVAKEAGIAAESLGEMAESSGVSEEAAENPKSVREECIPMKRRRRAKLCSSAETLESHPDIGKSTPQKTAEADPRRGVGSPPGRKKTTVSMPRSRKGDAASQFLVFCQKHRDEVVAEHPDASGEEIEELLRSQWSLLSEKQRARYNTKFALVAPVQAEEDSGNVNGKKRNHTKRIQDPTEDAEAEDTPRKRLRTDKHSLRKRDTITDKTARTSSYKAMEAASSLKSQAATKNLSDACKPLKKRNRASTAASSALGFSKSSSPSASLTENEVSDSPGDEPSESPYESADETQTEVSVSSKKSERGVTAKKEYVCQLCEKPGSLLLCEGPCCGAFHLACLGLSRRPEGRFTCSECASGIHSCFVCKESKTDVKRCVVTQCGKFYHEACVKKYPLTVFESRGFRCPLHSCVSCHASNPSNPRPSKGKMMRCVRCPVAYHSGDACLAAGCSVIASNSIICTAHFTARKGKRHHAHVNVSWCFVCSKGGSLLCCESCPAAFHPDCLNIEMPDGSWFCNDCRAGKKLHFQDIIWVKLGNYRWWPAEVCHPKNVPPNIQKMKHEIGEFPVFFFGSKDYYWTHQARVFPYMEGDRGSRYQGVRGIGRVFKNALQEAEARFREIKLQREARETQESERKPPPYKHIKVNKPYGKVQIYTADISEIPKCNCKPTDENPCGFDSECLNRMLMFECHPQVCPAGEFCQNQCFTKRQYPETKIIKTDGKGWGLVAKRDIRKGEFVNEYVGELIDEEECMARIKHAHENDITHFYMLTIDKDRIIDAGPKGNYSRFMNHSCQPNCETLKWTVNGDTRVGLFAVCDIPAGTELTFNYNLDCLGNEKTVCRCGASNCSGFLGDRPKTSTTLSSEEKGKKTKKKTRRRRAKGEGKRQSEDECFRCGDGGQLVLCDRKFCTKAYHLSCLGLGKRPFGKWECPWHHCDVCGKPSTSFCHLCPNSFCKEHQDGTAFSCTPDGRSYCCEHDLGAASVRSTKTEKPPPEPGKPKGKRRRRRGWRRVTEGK
The class given is biochemical.

Experiment [38] addresses Benomyl/methotrexate resistance protein (Candida albicans, UniProt P28873). The experiment can be described thus: Candida albicans Mdr1 pump inhibition curves – singleplex, Cherry Pick1 hits, dose response (AID 588608). The format is functional.
The target of another experiment is Large T antigen (Simian virus 40, UniProt P03070). The class given is functional, Betapolyomavirus macacae.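 Also: Confirmatory-stage PubChem screen for compounds that inhibit SV40 T antigen.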
The target in experiment [39] is T2, Alkaline phosphatase, tissue-nonspecific isozyme (Homo sapiens, UniProt P05186).
T2 sequence (P05186 whole entry): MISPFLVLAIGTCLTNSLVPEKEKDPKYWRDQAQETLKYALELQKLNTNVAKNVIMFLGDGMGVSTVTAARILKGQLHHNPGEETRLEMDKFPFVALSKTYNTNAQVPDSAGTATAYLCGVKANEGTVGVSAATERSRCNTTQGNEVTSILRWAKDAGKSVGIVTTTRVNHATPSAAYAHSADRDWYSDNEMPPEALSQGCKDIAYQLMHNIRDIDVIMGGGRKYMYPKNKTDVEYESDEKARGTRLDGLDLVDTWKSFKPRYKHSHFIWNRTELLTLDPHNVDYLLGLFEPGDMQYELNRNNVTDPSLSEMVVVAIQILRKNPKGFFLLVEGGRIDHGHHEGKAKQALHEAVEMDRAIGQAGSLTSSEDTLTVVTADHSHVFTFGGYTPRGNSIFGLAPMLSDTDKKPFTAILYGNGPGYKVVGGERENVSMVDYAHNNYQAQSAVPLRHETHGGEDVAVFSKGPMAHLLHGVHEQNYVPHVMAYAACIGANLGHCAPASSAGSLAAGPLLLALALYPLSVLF
The experiment can be described thus: activation of tissue-nonspecific alkaline phosphatase – biochemical, TNAP isozyme, mouse IAP uHTS hits, selectivity assay for mouse IAP activator project, dose response (AID 488880). The format is functional.

For the next experiment, the target named is Prothrombin (Bos taurus, UniProt P00735). The experiment can be described thus: thrombin protease inhibitors – biochemical, fluorescence polarization, uHTS hits, dose response (AID 602369). The format is functional.
Experiment [40] addresses Intestinal-type alkaline phosphatase (Mus musculus, UniProt P24822). The experiment can be described thus: mouse intestinal alkaline phosphatase activators, dose response, biochemical, luminescence, uHTS hits (AID 488783). The class given is functional.

The source made the active and inactive calls.

Sequence of Glycogen synthase kinase-3 beta (P49841 whole entry): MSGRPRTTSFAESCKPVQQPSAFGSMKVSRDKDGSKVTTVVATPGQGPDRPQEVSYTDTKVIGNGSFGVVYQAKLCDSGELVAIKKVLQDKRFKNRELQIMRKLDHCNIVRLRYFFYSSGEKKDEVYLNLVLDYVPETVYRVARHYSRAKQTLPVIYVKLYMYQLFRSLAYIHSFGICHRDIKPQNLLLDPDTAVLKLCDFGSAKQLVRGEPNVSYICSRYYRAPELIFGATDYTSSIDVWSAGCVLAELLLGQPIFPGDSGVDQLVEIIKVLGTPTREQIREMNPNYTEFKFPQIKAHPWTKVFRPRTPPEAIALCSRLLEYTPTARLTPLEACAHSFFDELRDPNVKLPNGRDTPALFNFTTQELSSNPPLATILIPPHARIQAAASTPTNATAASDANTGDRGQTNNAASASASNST
Sequence of Serine/threonine-protein kinase pim-1 (P11309 whole entry): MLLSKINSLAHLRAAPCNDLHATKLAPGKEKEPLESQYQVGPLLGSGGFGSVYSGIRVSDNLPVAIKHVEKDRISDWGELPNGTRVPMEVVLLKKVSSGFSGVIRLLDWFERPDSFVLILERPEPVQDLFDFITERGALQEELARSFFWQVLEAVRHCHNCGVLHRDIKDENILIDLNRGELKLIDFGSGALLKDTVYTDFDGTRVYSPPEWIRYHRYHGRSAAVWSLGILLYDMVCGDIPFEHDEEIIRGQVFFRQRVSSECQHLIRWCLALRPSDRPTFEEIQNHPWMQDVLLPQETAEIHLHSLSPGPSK
Sequence of Cyclin-dependent kinase 1 (P06493 whole entry): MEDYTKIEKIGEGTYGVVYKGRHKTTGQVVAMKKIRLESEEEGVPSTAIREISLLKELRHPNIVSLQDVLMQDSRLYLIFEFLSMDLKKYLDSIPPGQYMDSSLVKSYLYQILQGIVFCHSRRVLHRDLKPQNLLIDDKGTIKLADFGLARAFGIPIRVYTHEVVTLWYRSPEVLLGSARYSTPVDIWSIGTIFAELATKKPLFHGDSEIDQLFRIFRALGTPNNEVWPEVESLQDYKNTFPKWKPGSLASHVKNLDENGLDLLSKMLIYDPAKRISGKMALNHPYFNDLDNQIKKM
Sequence of Protein kinase C zeta type (Q05513 whole entry): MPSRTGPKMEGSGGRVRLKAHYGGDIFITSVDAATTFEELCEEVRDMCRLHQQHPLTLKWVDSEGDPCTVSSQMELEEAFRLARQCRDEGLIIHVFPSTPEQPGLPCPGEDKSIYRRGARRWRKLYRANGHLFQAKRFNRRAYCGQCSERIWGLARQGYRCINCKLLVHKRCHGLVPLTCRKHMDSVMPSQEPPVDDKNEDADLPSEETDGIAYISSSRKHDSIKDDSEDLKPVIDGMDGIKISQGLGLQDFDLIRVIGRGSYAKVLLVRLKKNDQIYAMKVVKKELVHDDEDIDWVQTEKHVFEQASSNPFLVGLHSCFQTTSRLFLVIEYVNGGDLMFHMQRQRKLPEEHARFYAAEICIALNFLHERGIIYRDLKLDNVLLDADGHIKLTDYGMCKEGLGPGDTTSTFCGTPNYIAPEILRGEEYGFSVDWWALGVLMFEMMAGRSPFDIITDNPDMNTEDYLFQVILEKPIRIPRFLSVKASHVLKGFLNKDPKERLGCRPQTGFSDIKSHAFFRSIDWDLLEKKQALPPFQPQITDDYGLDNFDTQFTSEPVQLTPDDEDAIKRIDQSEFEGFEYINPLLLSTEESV
Sequence of 72 kDa type IV collagenase (P08253 whole entry): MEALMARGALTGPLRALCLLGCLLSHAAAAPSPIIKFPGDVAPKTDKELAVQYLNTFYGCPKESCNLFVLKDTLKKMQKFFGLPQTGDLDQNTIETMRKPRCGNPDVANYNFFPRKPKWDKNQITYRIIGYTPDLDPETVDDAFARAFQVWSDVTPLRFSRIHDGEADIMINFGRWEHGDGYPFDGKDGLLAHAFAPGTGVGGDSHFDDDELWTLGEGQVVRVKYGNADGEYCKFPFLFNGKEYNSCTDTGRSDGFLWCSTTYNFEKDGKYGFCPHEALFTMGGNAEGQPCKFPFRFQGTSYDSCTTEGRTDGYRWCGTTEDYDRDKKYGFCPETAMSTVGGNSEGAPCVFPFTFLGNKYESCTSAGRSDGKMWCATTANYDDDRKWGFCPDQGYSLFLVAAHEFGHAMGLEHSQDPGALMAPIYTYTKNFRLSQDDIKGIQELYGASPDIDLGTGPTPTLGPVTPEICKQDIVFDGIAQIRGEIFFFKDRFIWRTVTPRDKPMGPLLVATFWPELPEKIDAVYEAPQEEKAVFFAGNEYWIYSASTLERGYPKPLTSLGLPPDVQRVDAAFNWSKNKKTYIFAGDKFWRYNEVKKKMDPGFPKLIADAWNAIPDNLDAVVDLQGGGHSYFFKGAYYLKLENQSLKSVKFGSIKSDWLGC
Sequence of Ribosomal protein S6 kinase beta-1 (P23443 whole entry): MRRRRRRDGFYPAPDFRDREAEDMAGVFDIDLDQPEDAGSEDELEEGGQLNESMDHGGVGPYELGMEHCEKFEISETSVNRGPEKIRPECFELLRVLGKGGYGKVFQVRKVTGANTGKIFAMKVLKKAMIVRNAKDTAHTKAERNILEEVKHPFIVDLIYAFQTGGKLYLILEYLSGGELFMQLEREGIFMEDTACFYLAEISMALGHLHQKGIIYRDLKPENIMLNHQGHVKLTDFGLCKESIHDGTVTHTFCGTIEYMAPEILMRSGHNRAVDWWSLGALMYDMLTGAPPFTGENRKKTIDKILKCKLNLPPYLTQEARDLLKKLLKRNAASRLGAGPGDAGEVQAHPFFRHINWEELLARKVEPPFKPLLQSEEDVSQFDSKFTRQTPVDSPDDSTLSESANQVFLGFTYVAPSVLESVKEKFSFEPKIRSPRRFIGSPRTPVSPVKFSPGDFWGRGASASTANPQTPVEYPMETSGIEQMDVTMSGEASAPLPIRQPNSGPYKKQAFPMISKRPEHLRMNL
Sequence of Intestinal-type alkaline phosphatase (Homo sapiens, UniProt P09923) (P09923 whole entry): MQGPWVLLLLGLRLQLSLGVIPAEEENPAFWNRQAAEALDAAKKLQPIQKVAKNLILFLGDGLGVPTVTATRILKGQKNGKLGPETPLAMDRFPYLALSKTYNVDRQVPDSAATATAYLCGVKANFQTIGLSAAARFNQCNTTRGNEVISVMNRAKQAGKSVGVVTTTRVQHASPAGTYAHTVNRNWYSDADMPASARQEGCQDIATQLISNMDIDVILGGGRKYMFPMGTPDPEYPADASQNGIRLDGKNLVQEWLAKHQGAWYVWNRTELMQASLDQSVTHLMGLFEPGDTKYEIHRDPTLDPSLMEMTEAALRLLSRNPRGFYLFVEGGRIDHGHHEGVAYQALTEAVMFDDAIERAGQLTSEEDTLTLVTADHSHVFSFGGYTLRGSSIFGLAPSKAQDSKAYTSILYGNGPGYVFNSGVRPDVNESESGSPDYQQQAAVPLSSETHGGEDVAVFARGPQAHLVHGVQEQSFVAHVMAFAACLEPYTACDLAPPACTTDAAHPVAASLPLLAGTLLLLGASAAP
Sequence of Casein kinase II subunit alpha (P68400 whole entry): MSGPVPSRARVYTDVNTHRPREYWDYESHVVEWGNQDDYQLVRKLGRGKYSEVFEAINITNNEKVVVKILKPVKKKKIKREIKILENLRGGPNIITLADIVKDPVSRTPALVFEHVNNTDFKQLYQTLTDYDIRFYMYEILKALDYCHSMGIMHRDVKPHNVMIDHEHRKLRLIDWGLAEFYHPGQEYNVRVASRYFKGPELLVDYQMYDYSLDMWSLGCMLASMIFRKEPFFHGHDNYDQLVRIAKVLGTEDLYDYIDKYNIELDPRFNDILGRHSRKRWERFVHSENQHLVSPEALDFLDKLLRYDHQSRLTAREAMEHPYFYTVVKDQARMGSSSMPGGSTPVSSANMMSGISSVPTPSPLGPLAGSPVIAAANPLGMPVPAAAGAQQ
Sequence of MAP kinase-activated protein kinase 2 (P49137 whole entry): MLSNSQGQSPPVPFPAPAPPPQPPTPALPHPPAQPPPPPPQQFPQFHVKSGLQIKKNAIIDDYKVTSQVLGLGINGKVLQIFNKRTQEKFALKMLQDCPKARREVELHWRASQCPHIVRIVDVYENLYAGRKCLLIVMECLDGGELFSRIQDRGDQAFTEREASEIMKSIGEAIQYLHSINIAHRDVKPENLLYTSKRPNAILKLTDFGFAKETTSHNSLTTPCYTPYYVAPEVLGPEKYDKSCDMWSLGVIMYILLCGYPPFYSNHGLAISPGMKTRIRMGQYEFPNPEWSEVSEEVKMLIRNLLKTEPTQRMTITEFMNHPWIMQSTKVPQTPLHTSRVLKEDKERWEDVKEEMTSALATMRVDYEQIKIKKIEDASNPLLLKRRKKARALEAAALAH

Take `CCOc1ccc(C(C#N)c2c(Cl)cnn(Cc3cccc4ccccc34)c2=O)c(F)c1F` (stereo not drawn): the IC50 in experiment [1] and in experiment [2] was 0.601 µM (active) throughout.
As to `O=C1NC(=O)C(Nc2ccccc2)=C1Cl`, the Ki (in general, the dissociation constant of the complex between target and ligand, obtained from inhibition or displacement) in experiment [3] is > 15.8 µM (inactive); in [4], > 20 µM (inactive); in experiment [5] it was > 20 µM (inactive); in [6], > 25.1 µM (inactive); in [7] it was 15.8 µM (active); in experiment [8], > 15.8 µM (inactive). The Ki in experiment [9] was > 20 µM (inactive); in experiment [10], > 12.6 µM (inactive); in experiment [11] it was > 20 µM (inactive); in experiment [12], > 25.1 µM (inactive); in [13] it was > 15.8 µM (inactive); in [14] it was > 20 µM (inactive). Moreover, the Ki in [15] is > 20 µM (inactive); in experiment [16], > 25.1 µM (inactive); in experiment [17], > 25.1 µM (inactive); in experiment [18], > 20 µM (inactive); in [19], > 12.6 µM (inactive); in [20], > 20 µM (inactive). The Ki is > 20 µM (inactive) in experiment [21]; > 20 µM (inactive) on Ephrin type-A receptor 2; 12.6 µM (active) in experiment [22]; > 20 µM (inactive) in experiment [23]; 15.8 µM (active) on Aurora kinase A; 1 µM (active) in experiment [24]. The Ki in experiment [25] was > 20 µM (inactive).
As for `CC1CC(C)CN(C(=O)C2CCC(CNc3c(N4CCCCC4)c(=O)c3=O)CC2)C1` (stereo not drawn), in experiment [26], the CC50 (as a rule, the concentration at which the toxic effect on the cells reaches its halfway point) is > 30 µM (inconclusive).
For the compound `O=c1cc(-c2cccc(F)c2)[nH]c2c(-c3ccc(F)cc3)cnn12`, the Ki in [7] was 0.126 µM (active); in [27], 0.0631 µM (active); in experiment [28], 0.501 µM (active); in experiment [14], > 7.94 µM (inactive); in experiment [15] it was > 7.94 µM (inactive); in experiment [29] it was > 10 µM (inactive). In addition, the Ki is > 10 µM (inactive) in experiment [30], 0.158 µM (active) in [31] and 2 µM (active) in experiment [24].
In the case of `O=C(O)C(c1ccccc1)N1C(=O)/C(=C\c2ccc(O)c(O)c2)SC1=S` (stereo not drawn), the IC50 – broadly, the concentration at which inhibition is half-maximal – is 39.7 µM (active) in [32], 26.3 µM (active) in experiment [36], 7.85 µM (active) on Large T antigen and 30.7 µM (active) at Prothrombin. For the same compound, the AC50 (in general, the concentration giving half of the maximal activity seen) in [33] was 0.208 µM (active); in [37] it was 4.05 µM (active). Also, the EC50 – broadly, the concentration needed to bring the measured effect to its halfway point – is 4.78 µM (active) in experiment [34]; 59.1 µM (active) in experiment [35]; 2.72 µM (active) in [38]; 24.1 µM (active) in experiment [39]; 61 µM (active) in [40].
